# According to patent US11046686B2, “Thiadiazole IRAK4 compounds” (Gilead Sciences, Inc., priority 2018, dated 2021):
# Read-outs that look alike come from different tables or passages of the source.
# How the values were obtained:
# [1] = target: IRAK4 enzyme (Homo sapiens (Human), UniProt Q9NWZ3); test: IRAK4 Biochemical Assay (TR-FRET, STK1 KinEASE)
# How it was run: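 TR-FRET endpoint (KinEASE STK1): phosphopeptide detected with cryptate antibody and tracer after EDTA quench, ratio 665/615 nm, normalized to no-inhibitor wells as % inhibition. Reaction: 0.75 nM IRAK4, […] peptide, 500 μM ATP, pH 7.0 HEPES, 120 min room temperature, after 15 min compound preincubation with enzyme.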
# [2] = tested on: TNFα; test: IRAK4 Monocyte TNFα Cell Based Assay; set-up: species or system human; settings: human monocytes, second part of Table 2, compounds 33-343, unit inferred, read-out: EC50 MONO TNF HTRF
# How it was run: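 TNFα release quantified by HTRF (cryptate/XL665 antibody pair, overnight at RT) after 1 h compound pre-incubation (0.1% DMSO) and 4 h LPS challenge at 50 pg/ml, 37 °C, 5,000 monocytes per well. Signal ratio normalised between unstimulated (0%) and stimulated (100%) controls.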
# [3] = second part of Table 2, compounds 33-343, unit inferred, read-out: IC50 IRAK4-HTBS
# Sequence of IRAK4 enzyme (Q9NWZ3 whole entry): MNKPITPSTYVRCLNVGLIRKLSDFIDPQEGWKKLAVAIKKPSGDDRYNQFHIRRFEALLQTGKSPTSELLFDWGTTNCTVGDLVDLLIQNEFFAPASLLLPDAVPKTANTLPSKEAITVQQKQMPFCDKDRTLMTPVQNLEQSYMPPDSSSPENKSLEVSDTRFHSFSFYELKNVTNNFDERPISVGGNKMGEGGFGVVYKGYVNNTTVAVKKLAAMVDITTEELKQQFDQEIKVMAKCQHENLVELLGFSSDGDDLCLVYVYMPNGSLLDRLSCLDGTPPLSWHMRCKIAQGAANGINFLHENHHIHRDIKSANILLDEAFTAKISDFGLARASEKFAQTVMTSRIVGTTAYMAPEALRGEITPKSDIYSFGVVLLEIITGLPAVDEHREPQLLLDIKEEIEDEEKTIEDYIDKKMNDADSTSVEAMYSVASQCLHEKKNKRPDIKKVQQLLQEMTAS
Structure (SMILES),IC50 [1] [nM],"EC50 ([2]; Homo sapiens, Monocyte) [nM]","IC50 [1, 3] [nM]",EC50 [2] [nM]
"C[C@]1(O)CCN(c2nnc(-c3cnc(-c4ccc5cc(C#N)cnn45)cc3NC3COC3)s2)C[C@@H]1F [Example 207, 7-(5-(5-((3S,4S)-3-fluoro-4-hydroxy-4-methylpiperidin-1-yl)-1,3,4-thiadiazol-2-yl)-4-(oxetan-3-ylamino)pyridin-2-yl)pyrrolo[1,2-b]pyridazine-3-carbonitrile]",0.69,7.9,,
"C[C@]1(O)CC[C@@H](c2nnc(-c3cnc(-c4ccc5cc(C#N)cnn45)cc3NC3COC3)s2)CC1 [Example 208, 7-(5-(5-((1s,4s)-4-hydroxy-4-methylcyclohexyl)-1,3,4-thiadiazol-2-yl)-4-(oxetan-3-ylamino)pyridin-2-yl)pyrrolo[1,2-b]pyridazine-3-carbonitrile]",,,0.67,13.6
"CC(C)Nc1cc(-c2ccc3cc(C#N)cnn23)ncc1-c1nncs1 [Example 211, 7-(4-(isopropylamino)-5-(1,3,4-thiadiazol-2-yl)pyridin-2-yl)pyrrolo[1,2-b]pyridazine-3-carbonitrile]",,78.2,0.98,
"CC(C)Nc1cc(-c2ccc3cc(C#N)cnn23)ncc1-c1nnc(CCN)s1 [Example 212, 7-(5-(5-(2-aminoethyl)-1,3,4-thiadiazol-2-yl)-4-(isopropylamino)pyridin-2-yl)pyrrolo[1,2-b]pyridazine-3-carbonitrile]",,305,1.01,
"CC(C)Nc1cc(-c2ccc3cc(C#N)cnn23)ncc1-c1nnc(C(=O)N2CCC[C@@H]2CO)s1 [Example 214, (R)-7-(5-(5-(2-(hydroxymethyl)pyrrolidine-1-carbonyl)-1,3,4-thiadiazol-2-yl)-4-(isopropylamino)pyridin-2-yl)pyrrolo[1,2-b]pyridazine-3-carbonitrile]",0.46,33.2,,
"CC(C)Nc1cc(-c2ccc3cc(C#N)cnn23)ncc1-c1nnc(C(=O)N2CC[C@H](CO)C2)s1 [Example 221, (S)-7-(5-(5-(3-(hydroxymethyl)pyrrolidine-1-carbonyl)-1,3,4-thiadiazol-2-yl)-4-(isopropylamino)pyridin-2-yl)pyrrolo[1,2-b]pyridazine-3-carbonitrile]",0.92,2320,,
"CC(C)Nc1cc(-c2ccc3cc(C#N)cnn23)ncc1-c1nnc(C(=O)N2CC[C@@H](NC(=O)OC(C)(C)C)C2)s1 [Example 222, tert-butyl (R)-(1-(5-(6-(3-cyanopyrrolo[1,2-b]pyridazin-7-yl)-4-(isopropylamino)pyridin-3-yl)-1,3,4-thiadiazole-2-carbonyl)pyrrolidin-3-yl)carbamate]",1.79,1780,,
"CC(C)Nc1cc(-c2ccc3cc(C#N)cnn23)ncc1-c1nnc(C(=O)N2CC[C@H](NC(=O)OC(C)(C)C)C2)s1 [Example 223, tert-butyl (S)-(1-(5-(6-(3-cyanopyrrolo[1,2-b]pyridazin-7-yl)-4-(isopropylamino)pyridin-3-yl)-1,3,4-thiadiazole-2-carbonyl)pyrrolidin-3-yl)carbamate]",1.43,1360,,
"CC(=O)NC12CCC(c3nnc(-c4cnc(-c5ccc6cc(C#N)cnn56)cc4NC(C)C)s3)(CC1)C2 [Example 284, N-(4-(5-(6-(3-cyanopyrrolo[1,2-b]pyridazin-7-yl)-4-(isopropylamino)pyridin-3-yl)-1,3,4-thiadiazol-2-yl)bicyclo[2.2.1]heptan-1-yl)acetamide]",0.69,17.6,,
"CC(C)Nc1cc(-c2ccc3cc(C#N)cnn23)ncc1-c1nnc(N2CC(C)(O)C2)s1 [Example 286, 7-(5-(5-(3-hydroxy-3-methylazetidin-1-yl)-1,3,4-thiadiazol-2-yl)-4-(isopropylamino)pyridin-2-yl)pyrrolo[1,2-b]pyridazine-3-carbonitrile]",0.63,21.4,,
"CC(=O)NC12CCC(c3nnc(-c4cnc(-c5ccc6cc(C#N)cnn56)cc4NC(C)C)s3)(C1)C2 [Example 288, N-(4-(5-(6-(3-cyanopyrrolo[1,2-b]pyridazin-7-yl)-4-(isopropylamino)pyridin-3-yl)-1,3,4-thiadiazol-2-yl)bicyclo[2.1.1]hexan-1-yl)acetamide]",0.72,19.8,,
"CC(C)Nc1cc(-c2ccc3cc(C#N)cnn23)ncc1-c1nnc(N2CC3CCC(C3)C2)s1 [Example 291, 7-(5-(5-(3-azabicyclo[3.2.1]octan-3-yl)-1,3,4-thiadiazol-2-yl)-4-(isopropylamino)pyridin-2-yl)pyrrolo[1,2-b]pyridazine-3-carbonitrile]",1.78,59.3,,
"CC(C)Nc1cc(-c2ccc3cc(C#N)cnn23)ncc1-c1nnc(N2CC3(CCO3)C2)s1 [Example 293, 7-(5-(5-(1-oxa-6-azaspiro[3.3]heptan-6-yl)-1,3,4-thiadiazol-2-yl)-4-(isopropylamino)pyridin-2-yl)pyrrolo[1,2-b]pyridazine-3-carbonitrile]",1.52,365,,
"CC(C)Nc1cc(-c2ccc3cc(C#N)cnn23)ncc1-c1nnc(N2CC3CCCC(C3)C2)s1 [Example 295, 7-(5-(5-(3-azabicyclo[3.3.1]nonan-3-yl)-1,3,4-thiadiazol-2-yl)-4-(isopropylamino)pyridin-2-yl)pyrrolo[1,2-b]pyridazine-3-carbonitrile]",57.7,1000,,
"CC(=O)N[C@@H]1CCCN(c2nnc(-c3cnc(-c4ccc5cc(C#N)cnn45)cc3NC(C)C)s2)C1 [Example 296, (R)-N-(1-(5-(6-(3-cyanopyrrolo[1,2-b]pyridazin-7-yl)-4-(isopropylamino)pyridin-3-yl)-1,3,4-thiadiazol-2-yl)piperidin-3-yl)acetamide]",1.02,1000,,
"CC(C)Nc1cc(-c2ccc3cc(C#N)cnn23)ncc1-c1nnc(N2CC(O)(C(F)(F)F)C2)s1 [Example 297, 7-(5-(5-(3-hydroxy-3-(trifluoromethyl)azetidin-1-yl)-1,3,4-thiadiazol-2-yl)-4-(isopropylamino)pyridin-2-yl)pyrrolo[1,2-b]pyridazine-3-carbonitrile]",0.67,10,,
"CC(=O)NC1CCCN(c2nnc(-c3cnc(-c4ccc5cc(C#N)cnn45)cc3NC(C)C)s2)CC1 (centres unmarked) [Example 298, N-(1-(5-(6-(3-cyanopyrrolo[1,2-b]pyridazin-7-yl)-4-(isopropylamino)pyridin-3-yl)-1,3,4-thiadiazol-2-yl)azepan-4-yl)acetamide]",0.61,36.3,,
"CC(=O)N[C@H]1CCCN(c2nnc(-c3cnc(-c4ccc5cc(C#N)cnn45)cc3NC(C)C)s2)C1 [Example 299, (S)-N-(1-(5-(6-(3-cyanopyrrolo[1,2-b]pyridazin-7-yl)-4-(isopropylamino)pyridin-3-yl)-1,3,4-thiadiazol-2-yl)piperidin-3-yl)acetamide]",0.52,41.6,,
"CC(=O)N1C[C@H]2C[C@@H]1CN2c1nnc(-c2cnc(-c3ccc4cc(C#N)cnn34)cc2NC(C)C)s1 [Example 303, 7-(5-(5-((1R,4R)-5-acetyl-2,5-diazabicyclo[2.2.1]heptan-2-yl)-1,3,4-thiadiazol-2-yl)-4-(isopropylamino)pyridin-2-yl)pyrrolo[1,2-b]pyridazine-3-carbonitrile]",0.51,12.5,,
"CNC(=O)C1CCN(c2nnc(-c3cnc(-c4ccc5cc(C#N)cnn45)cc3NC(C)C)s2)CC1 [Example 305, 1-(5-(6-(3-cyanopyrrolo[1,2-b]pyridazin-7-yl)-4-(isopropylamino)pyridin-3-yl)-1,3,4-thiadiazol-2-yl)-N-methylpiperidine-4-carboxamide]",1.02,15.9,,
"CNc1cc(-c2ccc3cc(C#N)cnn23)ncc1-c1nnc(N2CC[C@@H](NC(C)=O)C(F)(F)C2)s1 [Example 306, (R)-N-(1-(5-(6-(3-cyanopyrrolo[1,2-b]pyridazin-7-yl)-4-(methylamino)pyridin-3-yl)-1,3,4-thiadiazol-2-yl)-3,3-difluoropiperidin-4-yl)acetamide]",1.21,18.4,,
"CNc1cc(-c2ccc3cc(C#N)cnn23)ncc1-c1nnc(N2CC[C@H](NC(C)=O)C(F)(F)C2)s1 [Example 307, (S)-N-(1-(5-(6-(3-cyanopyrrolo[1,2-b]pyridazin-7-yl)-4-(methylamino)pyridin-3-yl)-1,3,4-thiadiazol-2-yl)-3,3-difluoropiperidin-4-yl)acetamide]",0.83,53.7,,
"CC(C)Nc1cc(-c2ccc3cc(C#N)cnn23)ncc1-c1nnc(N2CCC(C#N)CC2)s1 [Example 310, 7-(5-(5-(4-cyanopiperidin-1-yl)-1,3,4-thiadiazol-2-yl)-4-(isopropylamino)pyridin-2-yl)pyrrolo[1,2-b]pyridazine-3-carbonitrile]",0.66,25.9,,
"CC(=O)NC1CC=C(c2nnc(-c3cnc(-c4ccc5cc(C#N)cnn45)cc3NC(C)C)s2)CC1 (centres unmarked) [Example 313, N-(4-(5-(6-(3-cyanopyrrolo[1,2-b]pyridazin-7-yl)-4-(isopropylamino)pyridin-3-yl)-1,3,4-thiadiazol-2-yl)cyclohex-3-en-1-yl)acetamide]",1.47,48.6,,
"CC(C)Nc1cc(-c2ccc3cc(C#N)cnn23)ncc1-c1nnc([C@H]2CC[C@H](NC(=O)C3(C)COC3)CC2)s1 [Example 314, N-((1r,4r)-4-(5-(6-(3-cyanopyrrolo[1,2-b]pyridazin-7-yl)-4-(isopropylamino)pyridin-3-yl)-1,3,4-thiadiazol-2-yl)cyclohexyl)-3-methyloxetane-3-carboxamide]",0.55,10.1,,
